Measurements: PubChem BioAssay (NCI)
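Briefly, cells in 96-well plates were exposed to five compound concentrations for 48 h, and endpoints were estimated by linear interpolation. Abbreviation: GI50, concentration required for 50% inhibition of growth. TGI: total growth inhibition.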

Experiments:
Test in all cases: NCI tumour cell line growth inhibition, 48 h
[1] = system: PC-3 prostate
[2] = system: MDA-N
[3] = system: HCT-116 colon
[4] = system: MOLT-4 leukemia
[5] = system: SK-MEL-2 melanoma
[6] = system: SR leukemia
[7] = system: MCF7 breast
[8] = system: HT29 colon
[9] = system: NCI-H522 lung
[10] = system: TK-10 renal
[11] = system: HOP-62 NSCLC
[12] = system: SF-539 CNS
[13] = system: A498 renal
[14] = system: SK-OV-3 ovarian
[15] = system: KM12 colon
[16] = system: SK-MEL-28 melanoma
[17] = system: OVCAR-4 ovarian
[18] = system: NCI-H460 lung
[19] = system: U251 CNS
[20] = system: M14 melanoma
[21] = system: SF-268 CNS
[22] = system: SNB-19 CNS
[23] = system: T-47D breast
[24] = system: HOP-92 NSCLC
[25] = system: NCI/ADR-RES ovarian
[26] = system: OVCAR-3 ovarian
[27] = system: OVCAR-8 ovarian
[28] = system: IGROV1 ovarian
[29] = system: SN12C renal
[30] = system: SNB-75 CNS
[31] = system: HL-60(TB) leukemia
[32] = system: ACHN renal
[33] = system: OVCAR-5 ovarian
[34] = system: K-562 leukemia
[35] = system: COLO 205 colon
[36] = system: HCC-2998 colon
[37] = system: SW-620 colon
[38] = system: 786-0 renal
[39] = system: BT-549 breast
[40] = system: CAKI-1 renal
[41] = system: HCT-15 colon
[42] = system: HS 578T breast
[43] = system: LOX IMVI melanoma
[44] = system: NCI-H23 lung
[45] = system: SF-295 CNS
[46] = system: MALME-3M melanoma
[47] = system: RPMI-8226 leukemia
[48] = system: MDA-MB-435
[49] = system: UACC-62 melanoma
[50] = system: DU-145 prostate
[51] = system: UACC-257 melanoma
[52] = system: EKVX NSCLC
[53] = system: SK-MEL-5 melanoma
[54] = system: CCRF-CEM leukemia
[55] = system: RXF 393 renal
[56] = system: MDA-MB-231 breast
[57] = system: UO-31 renal
[58] = system: NCI-H226 lung
[59] = system: LXFL 529 NSCLC
[60] = system: KM20L2 colon
[61] = system: SNB-78 CNS
[62] = system: DLD-1 colon
[63] = system: A549 NSCLC
[64] = system: DMS 273 small cell lung
[65] = system: XF 498 CNS
[66] = system: M19-MEL melanoma
[67] = system: DMS 114 small cell lung

Cc1ccnc2c1c(=O)c1ccccc1n2C
TGI [1]: > 100 µM
TGI [2]: > 100 µM
TGI [3]: > 100 µM
TGI [4]: 73.8 µM
TGI [5]: > 100 µM
TGI [6]: > 100 µM
TGI [7]: > 100 µM
TGI [8]: 85.2 µM
TGI [9]: 65.7 µM
TGI [10]: 89.8 µM
TGI [11]: > 100 µM
TGI [12]: > 100 µM
TGI [13]: > 100 µM
TGI [14]: > 100 µM
TGI [15]: > 100 µM
TGI [16]: > 100 µM
TGI [17]: > 100 µM
TGI [18]: 44.9 µM
TGI [19]: > 100 µM
TGI [20]: > 100 µM
TGI [21]: > 100 µM
TGI [22]: > 100 µM
TGI [23]: > 100 µM
TGI [24]: > 100 µM
TGI [25]: > 100 µM
TGI [26]: > 100 µM
TGI [27]: > 100 µM
TGI [28]: > 100 µM
TGI [29]: > 100 µM
TGI [30]: 56.3 µM
TGI [31]: > 100 µM
TGI [32]: 56.8 µM
TGI [33]: > 100 µM
TGI [34]: > 100 µM
TGI [35]: > 100 µM
TGI [36]: > 100 µM
TGI [37]: > 100 µM
TGI [38]: > 100 µM
TGI [39]: 81.9 µM
TGI [40]: 51.4 µM
TGI [41]: > 100 µM
TGI [42]: 73.5 µM
TGI [43]: > 100 µM
TGI [44]: > 100 µM
TGI [45]: > 100 µM
TGI [46]: > 100 µM
TGI [47]: > 100 µM
TGI [48]: > 100 µM
TGI [49]: 41.4 µM
TGI [50]: > 100 µM
TGI [51]: > 100 µM
TGI [52]: > 100 µM
TGI [53]: 47.2 µM
TGI [54]: > 100 µM
TGI [55]: > 100 µM
TGI [56]: > 100 µM
TGI [57]: 36.5 µM
TGI [58]: > 100 µM

CCCCC(=O)[O-].N.N.N.N.N.[Co+3].[O-][Cl+3]([O-])([O-])[O-]
GI50 [3]: > 100 µM
TGI [3]: > 100 µM
GI50 [4]: > 100 µM
TGI [4]: > 100 µM
GI50 [5]: > 100 µM
TGI [5]: > 100 µM
GI50 [59]: > 100 µM
TGI [59]: > 100 µM
GI50 [60]: > 100 µM
TGI [60]: > 100 µM
GI50 [8]: > 100 µM
TGI [8]: > 100 µM
GI50 [9]: > 100 µM
TGI [9]: > 100 µM
GI50 [10]: > 100 µM
TGI [10]: > 100 µM
GI50 [11]: > 100 µM
TGI [11]: > 100 µM
GI50 [12]: > 100 µM
TGI [12]: > 100 µM
GI50 [13]: > 100 µM
TGI [13]: > 100 µM
GI50 [14]: > 100 µM
TGI [14]: > 100 µM
GI50 [15]: > 100 µM
TGI [15]: > 100 µM
GI50 [16]: > 100 µM
TGI [16]: > 100 µM
GI50 [17]: > 100 µM
TGI [17]: > 100 µM
GI50 [18]: > 100 µM
TGI [18]: > 100 µM
GI50 [19]: > 100 µM
TGI [19]: > 100 µM
GI50 [20]: > 100 µM
TGI [20]: > 100 µM
GI50 [21]: > 100 µM
TGI [21]: > 100 µM
GI50 [22]: > 100 µM
TGI [22]: > 100 µM
GI50 [24]: > 100 µM
TGI [24]: > 100 µM
GI50 [26]: > 100 µM
TGI [26]: > 100 µM
GI50 [27]: > 100 µM
TGI [27]: > 100 µM
GI50 [28]: > 100 µM
TGI [28]: > 100 µM
GI50 [29]: > 100 µM
TGI [29]: > 100 µM
GI50 [30]: 49.3 µM
TGI [30]: > 100 µM
GI50 [32]: > 100 µM
TGI [32]: > 100 µM
GI50 [33]: > 100 µM
TGI [33]: > 100 µM
GI50 [61]: > 100 µM
TGI [61]: > 100 µM
GI50 [34]: > 100 µM
TGI [34]: > 100 µM
GI50 [35]: > 100 µM
TGI [35]: > 100 µM
GI50 [36]: > 100 µM
TGI [36]: > 100 µM
GI50 [62]: > 100 µM
TGI [62]: > 100 µM
GI50 [37]: > 100 µM
TGI [37]: > 100 µM
GI50 [38]: > 100 µM
TGI [38]: > 100 µM
GI50 [63]: > 100 µM
TGI [63]: > 100 µM
GI50 [41]: > 100 µM
TGI [41]: > 100 µM
GI50 [43]: > 100 µM
TGI [43]: > 100 µM
GI50 [44]: > 100 µM
TGI [44]: > 100 µM
GI50 [45]: > 100 µM
TGI [45]: > 100 µM
GI50 [46]: > 100 µM
TGI [46]: > 100 µM
GI50 [47]: > 100 µM
TGI [47]: > 100 µM
GI50 [49]: > 100 µM
TGI [49]: > 100 µM
GI50 [51]: > 100 µM
TGI [51]: > 100 µM
GI50 [52]: > 100 µM
TGI [52]: > 100 µM
GI50 [53]: > 100 µM
TGI [53]: > 100 µM
GI50 [54]: > 100 µM
TGI [54]: > 100 µM
GI50 [57]: > 100 µM
TGI [57]: > 100 µM
GI50 [64]: > 100 µM
TGI [64]: > 100 µM

CCCC(=O)N[C@@H](Cc1cc(I)c(O)c(I)c1)C(=O)NCCCNCCCCNCCCNC(=O)[C@@H](N)CCCN=C(N)N
TGI [65]: > 100 µM
TGI [3]: > 100 µM
TGI [4]: > 100 µM
TGI [59]: > 100 µM
TGI [60]: > 100 µM
TGI [6]: > 100 µM
TGI [8]: > 100 µM
TGI [9]: > 100 µM
TGI [10]: > 100 µM
TGI [11]: > 100 µM
TGI [12]: > 100 µM
TGI [15]: > 100 µM
TGI [16]: > 100 µM
TGI [18]: > 100 µM
TGI [19]: > 100 µM
TGI [20]: > 100 µM
TGI [22]: > 100 µM
TGI [66]: > 100 µM
TGI [26]: > 100 µM
TGI [27]: > 100 µM
TGI [28]: > 100 µM
TGI [29]: > 100 µM
TGI [67]: > 100 µM
TGI [31]: > 100 µM
TGI [32]: > 100 µM
TGI [34]: > 100 µM
TGI [35]: > 100 µM
TGI [36]: > 100 µM
TGI [37]: > 100 µM
TGI [38]: > 100 µM
TGI [63]: > 100 µM
TGI [41]: > 100 µM
TGI [43]: > 100 µM
TGI [44]: > 100 µM
TGI [46]: > 100 µM
TGI [47]: > 100 µM
TGI [49]: > 100 µM
TGI [51]: > 100 µM
TGI [52]: > 100 µM
TGI [53]: > 100 µM
TGI [54]: > 100 µM
TGI [55]: > 100 µM
TGI [57]: > 100 µM
TGI [58]: > 100 µM
TGI [64]: > 100 µM
